US20080312208A1, “Pyridine Analogues” (ASTRAZENECA AB, priority 2005, published 2008)

Legend:
P2Y12 receptor = target: T1, P2Y12 receptor (Homo sapiens, UniProt Q9H244); test: Functional inhibition of 2-Me-S-ADP induced P2Y12 signalling (35S-GTPγS, cell membranes); format: biochemical; settings: membranes from P2Y12 transfected CHO-cells, EC80 concentration of agonist 2-methyl-thio-adenosine diphosphate, 30° C. for 45 min
T1 construct: expressed in transfected cells; host or cells: CHO cells (membranes)
Procedure: Functional inhibition of the P2Y12 receptor can be measured by in vitro assays using cell membranes from P2Y12 transfected CHO-cells, the methodology is indicated below.
Functional inhibition of 2-Me-S-ADP induced P2Y12 signalling: 5 μg of membranes were diluted in 200 μl of 200 mM NaCl, 1 mM MgCl2, 50 mM HEPES (pH 7.4), 0.01% BSA, 30 μg/ml saponin and 10 μM GDP. To this was added an EC80 concentration of agonist (2-methyl-thio-adenosine diphosphate), the required concentration of test compound and 0.1 μCi ^35S-GTPγS. The reaction was allowed to proceed at 30° C. for 45 min. Samples were then transferred on to GF/B filters using a cell harvester and washed with wash buffer (50 mM Tris (pH 7.4), 5 mM MgCl2, 50 mM NaCl). Filters were then covered with scintillant and counted for the amount of ^35S-GTPγS retained by the filter. Maximum activity was that determined in the presence of the agonist and minimum activity in the absence of the agonist following subtraction of the value determined for nonspecific activity. The effect of compounds at various concentrations was plotted according to the equation
y=A+((B−A)/(1+((C/x)̂D)))
and IC50 estimated where A is the bottom plateau of the curve i.e. the final minimum y value B is the top of the plateau of the curve i.e. the final maximum y value C is the x value at the middle of the curve. […]

[1] = Moisture adsorption of crystalline form on storage at 80% RH; format: physicochemical; settings: stored at 80% RH (ambient)
Procedure: The crystalline forms may be further characterised by the presence of one or more of the additional properties listed below: • (i) for Form I • (I) when characterised by thermogravimetric analysis, a weight loss of approx. 0.8% occurs in the range from 25° C. up to 205° C., and/or • (II) when characterised by differential scanning calorimetry, at a heating rate of 10° C. per minute in a closed cup with a pinhole under flowing nitrogen, a melting temperature (Tm) having an onset at about 194° C. and/or an associated endotherm of melting of about 96 J/g; and/or • (III) when stored at 80% RH (ambient) less than 0.2% moisture is adsorbed, • (i) […] • (I) when characterised by thermogravimetric analysis, a weight loss of approx. 0.2% occurs in the range from 25° C. up to 205° C., and/or • (II) when characterised by differential scanning calorimetry, at a heating rate of 10° C. per minute in a closed cup with a pinhole under flowing nitrogen, a melting temperature (Tm) having an onset at about 193° C. and/or an associated endotherm of melting of about 105 J/g.

T1 sequence (Q9H244 whole entry): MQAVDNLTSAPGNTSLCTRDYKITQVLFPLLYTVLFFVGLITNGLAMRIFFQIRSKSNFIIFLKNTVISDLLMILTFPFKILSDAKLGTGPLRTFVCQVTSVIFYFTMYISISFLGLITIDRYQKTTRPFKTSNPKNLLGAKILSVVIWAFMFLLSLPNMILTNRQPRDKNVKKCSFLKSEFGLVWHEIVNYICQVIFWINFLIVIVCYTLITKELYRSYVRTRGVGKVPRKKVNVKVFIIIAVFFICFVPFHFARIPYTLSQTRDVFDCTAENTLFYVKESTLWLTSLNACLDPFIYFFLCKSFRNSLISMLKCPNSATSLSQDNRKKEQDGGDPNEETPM

Row | IC50 (P2Y12 receptor) | moisture adsorbed [1] | SMILES
1 | 460 nM |  | Cc1nc(N2CC(C(=O)NS(=O)(=O)Cc3cccc(F)c3)C2)c(C#N)cc1C(=O)OC(C)C [Example 91, Isopropyl 5-cyano-6-[3-({[(3-fluorobenzyl)sulfonyl]amino}carbonyl)azetidin-1-yl]-2-methylnicotinate]
2 | 250 nM |  | CCOC(=O)c1cc(C#N)c(N2CCC(C(=O)NS(=O)(=O)Cc3ccc(C(C)C)cc3)CC2)nc1C [Example 119, Ethyl 5-cyano-6-[4-({[(4-isopropylbenzyl)sulfonyl]amino}carbonyl)piperidin-1-yl]-2-methylnicotinate]
3 |  | less than 0.2% | CCOC(=O)c1cc(C#N)c(N2CCC(C(=O)NS(=O)(=O)Cc3ccccc3)CC2)nc1C [Form I, 6-(4-{[(benzylsulfonyl)amino]carbonyl}piperidin-1-yl)-5-cyano-2-methylnicotinic acid ethyl ester]
